In ChEMBL document CHEMBL5528083, “Discovery of a Novel Thienopyrimidine Compound as a Urate Transporter 1 and Glucose Transporter 9 Dual Inhibitor with Improved Efficacy and Favorable Druggability” (J Med Chem, 2024):
pIC50: −log10 of the molar value.

Legend:
[1] = AUC (0 to infinity) in Sprague-Dawley rat at 2 mg/kg, po measured upto 24 hrs by LC-MS/MS-AR analysis; type: ADME, organism-based; details: in vivo
Mus musculus [2] = organism: Mus musculus; experiment: Reduction in serum uric acid level in acute hyperuricemia state Kunming mouse model assessed as SUA level by measuring decrease ratio relative to control; type: functional; parameters: concentration or dose not given beside the values
Mus musculus [3] = organism: Mus musculus; experiment: Reduction in serum uric acid level in chronic hyperuricemia state Kunming mouse model assessed as SUA level by measuring decrease ratio relative to control; type: functional; parameters: scale not given: the % may be the effect or the level left
[4] = Acute toxicity in Kunming mouse assessed as convulsions at 250 to 1000 mg/kg, po administered as single dose monitored for 7 days; type: organism-based; details: in vivo, 168 h, dose 250-1000 mg/kg, time 7 day
Rattus norvegicus [5] = experiment: Reduction in serum uric acid level in po dosed acute hyperuricemia state Sprague-Dawley rat model assessed as SUA level by measuring decrease ratio relative to control; type: functional; parameters: scale not given: the % may be the effect or the level left
[6] = Tmax in Sprague-Dawley rat at 2 mg/kg, iv measured upto 24 hrs by LC-MS/MS-AR analysis; type: ADME, organism-based; details: in vivo
Mus musculus [7] = experiment: Reduction in serum uric acid level in acute hyperuricemia state Kunming mouse model assessed as SUA level at 1 mg/kg, po (reference value: 1037 +/- 106.59 uM); type: functional
[8] = target: T1, Solute carrier family 2, facilitated glucose transporter member 9 (Mus musculus, UniProt Q3T9X0); experiment: Inhibition of mouse EGFP-tagged GLUT9 expressed in HEK293T cells assessed as inhibition rate by measuring relative current by patch clamp electrophysiological analysis relative to control; type: cell-based
T1 sequence (Q3T9X0 whole entry): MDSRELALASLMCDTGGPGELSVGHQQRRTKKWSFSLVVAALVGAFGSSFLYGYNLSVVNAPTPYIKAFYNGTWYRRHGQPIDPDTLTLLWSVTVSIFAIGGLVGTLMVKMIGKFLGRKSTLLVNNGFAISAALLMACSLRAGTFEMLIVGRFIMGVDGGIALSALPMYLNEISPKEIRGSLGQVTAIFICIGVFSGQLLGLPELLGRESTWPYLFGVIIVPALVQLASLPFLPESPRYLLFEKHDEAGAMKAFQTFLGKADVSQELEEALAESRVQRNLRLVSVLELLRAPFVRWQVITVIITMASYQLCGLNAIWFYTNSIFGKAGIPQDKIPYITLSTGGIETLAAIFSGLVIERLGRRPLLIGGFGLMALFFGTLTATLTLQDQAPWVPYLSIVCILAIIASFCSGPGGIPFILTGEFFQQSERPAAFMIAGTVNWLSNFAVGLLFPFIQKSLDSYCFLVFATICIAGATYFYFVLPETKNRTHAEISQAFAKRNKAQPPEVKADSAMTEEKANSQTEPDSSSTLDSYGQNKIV

Cytochrome P450 2D6 = Cytochrome P450 2D6 (Homo sapiens, UniProt P10635); experiment: Inhibition of CYP2D6 in human liver microsomes measured after 40 mins incubation by LC-MS/MS analysis; type: ADME, Microsome
Chain of Cytochrome P450 2D6 (P10635 whole entry): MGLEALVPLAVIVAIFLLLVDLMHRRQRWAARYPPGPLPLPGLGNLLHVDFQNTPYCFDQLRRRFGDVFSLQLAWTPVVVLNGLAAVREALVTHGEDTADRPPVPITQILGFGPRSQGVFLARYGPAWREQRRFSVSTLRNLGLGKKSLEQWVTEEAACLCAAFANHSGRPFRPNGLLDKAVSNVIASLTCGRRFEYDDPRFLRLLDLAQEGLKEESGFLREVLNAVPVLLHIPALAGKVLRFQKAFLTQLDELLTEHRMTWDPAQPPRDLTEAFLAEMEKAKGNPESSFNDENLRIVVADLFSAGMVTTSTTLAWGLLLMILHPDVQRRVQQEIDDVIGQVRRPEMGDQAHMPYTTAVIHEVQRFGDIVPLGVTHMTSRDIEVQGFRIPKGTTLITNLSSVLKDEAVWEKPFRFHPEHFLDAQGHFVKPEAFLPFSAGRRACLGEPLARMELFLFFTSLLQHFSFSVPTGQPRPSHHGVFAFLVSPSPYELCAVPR

[9] = target: Xanthine dehydrogenase/oxidase (Bos taurus, UniProt P80457); experiment: Inhibition of bovine XOD using xanthine as substrate assessed as inhibitory ratio at 10 uM by spectrophotometric analysis relative to control; details: cattle
Chain of Xanthine dehydrogenase/oxidase (P80457 whole entry): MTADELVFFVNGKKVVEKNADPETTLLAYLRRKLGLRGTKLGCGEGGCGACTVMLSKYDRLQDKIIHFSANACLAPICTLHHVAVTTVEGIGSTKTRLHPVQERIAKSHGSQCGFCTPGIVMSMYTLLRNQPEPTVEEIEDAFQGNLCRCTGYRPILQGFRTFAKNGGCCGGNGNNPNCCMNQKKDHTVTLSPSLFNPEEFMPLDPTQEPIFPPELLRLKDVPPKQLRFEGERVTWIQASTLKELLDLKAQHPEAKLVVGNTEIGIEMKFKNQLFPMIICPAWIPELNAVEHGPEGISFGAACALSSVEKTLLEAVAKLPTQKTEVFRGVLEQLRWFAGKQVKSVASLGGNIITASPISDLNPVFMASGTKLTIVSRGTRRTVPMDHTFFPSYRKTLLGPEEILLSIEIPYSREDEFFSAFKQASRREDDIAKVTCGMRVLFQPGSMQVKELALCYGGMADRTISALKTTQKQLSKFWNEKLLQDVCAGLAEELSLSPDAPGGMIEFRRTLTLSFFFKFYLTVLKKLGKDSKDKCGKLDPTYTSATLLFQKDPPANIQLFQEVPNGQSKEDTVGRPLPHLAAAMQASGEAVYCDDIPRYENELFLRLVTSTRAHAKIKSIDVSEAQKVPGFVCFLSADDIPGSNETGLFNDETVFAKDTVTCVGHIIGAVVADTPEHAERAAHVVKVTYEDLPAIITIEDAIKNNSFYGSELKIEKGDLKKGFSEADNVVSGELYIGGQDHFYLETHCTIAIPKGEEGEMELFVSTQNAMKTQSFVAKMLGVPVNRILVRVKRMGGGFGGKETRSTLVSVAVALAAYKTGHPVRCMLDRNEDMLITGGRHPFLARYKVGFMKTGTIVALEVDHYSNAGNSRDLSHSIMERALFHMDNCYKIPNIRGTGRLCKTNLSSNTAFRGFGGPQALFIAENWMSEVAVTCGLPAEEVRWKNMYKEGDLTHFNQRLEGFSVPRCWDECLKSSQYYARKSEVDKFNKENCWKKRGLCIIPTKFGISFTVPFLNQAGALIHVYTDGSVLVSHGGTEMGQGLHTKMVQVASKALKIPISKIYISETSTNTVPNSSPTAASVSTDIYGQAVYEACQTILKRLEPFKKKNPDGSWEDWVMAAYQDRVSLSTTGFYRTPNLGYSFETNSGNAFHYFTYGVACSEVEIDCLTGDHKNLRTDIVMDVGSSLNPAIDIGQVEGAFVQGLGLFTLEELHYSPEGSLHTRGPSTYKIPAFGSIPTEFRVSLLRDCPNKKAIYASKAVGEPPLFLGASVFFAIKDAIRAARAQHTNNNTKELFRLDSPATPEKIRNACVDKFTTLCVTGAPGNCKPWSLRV

[10] = Toxicity in Kunming female mouse assessed as pathological changes at 100 mg/kg, po administered every other day for 14 days by H and E staining based assay; type: organism-based; details: in vivo, 336 h, time 14 day
Cytochrome P450 3A4 = Cytochrome P450 3A4 (Homo sapiens, UniProt P08684); experiment: Inhibition of CYP3A4 in human liver microsomes using midazolam measured after 40 mins incubation by LC-MS/MS analysis; type: ADME, Microsome
Chain of Cytochrome P450 3A4 (P08684 whole entry): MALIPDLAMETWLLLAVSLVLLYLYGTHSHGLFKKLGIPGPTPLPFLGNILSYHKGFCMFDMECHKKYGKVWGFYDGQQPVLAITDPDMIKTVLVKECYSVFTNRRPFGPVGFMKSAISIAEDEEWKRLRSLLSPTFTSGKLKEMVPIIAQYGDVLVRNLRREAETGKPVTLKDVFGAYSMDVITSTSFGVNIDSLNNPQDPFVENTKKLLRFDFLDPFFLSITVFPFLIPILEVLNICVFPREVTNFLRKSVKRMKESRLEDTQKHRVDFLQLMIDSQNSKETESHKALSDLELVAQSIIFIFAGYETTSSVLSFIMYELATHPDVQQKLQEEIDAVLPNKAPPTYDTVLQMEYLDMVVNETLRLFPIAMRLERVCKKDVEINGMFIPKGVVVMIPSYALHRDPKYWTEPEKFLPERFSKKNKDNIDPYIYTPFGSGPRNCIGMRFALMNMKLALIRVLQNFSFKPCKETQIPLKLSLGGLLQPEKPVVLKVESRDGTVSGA

[11] = Subacute toxicity in Kunming mouse assessed as abnormal behavior at 100 mg/kg, po administered every other day for 14 days; type: organism-based; details: in vivo, 336 h, time 14 day
[12] = Oral bioavailability in Sprague-Dawley rat at 2 mg/kg measured upto 24 hrs by LC-MS/MS-AR analysis; type: ADME, organism-based; details: in vivo
[13] = Clearance in Sprague-Dawley rat at 2 mg/kg, iv measured upto 24 hrs by LC-MS/MS-AR analysis; type: ADME, organism-based; details: in vivo
[14] = Subacute toxicity in Kunming female mouse assessed as change in body weight at 100 mg/kg, po administered every other day for 14 days; type: organism-based; details: in vivo, 336 h, time 14 day
[15] = AUC (0 to infinity) in Sprague-Dawley rat at 2 mg/kg, iv measured upto 24 hrs by LC-MS/MS-AR analysis; type: ADME, organism-based; details: in vivo
[16] = AUC (0 to t) in Sprague-Dawley rat at 2 mg/kg, po measured upto 24 hrs by LC-MS/MS-AR analysis; type: ADME, organism-based; details: in vivo
Mus musculus [17] = experiment: Reduction in serum uric acid level in acute hyperuricemia state Kunming mouse model assessed as SUA level at 0.5 mg/kg, po (reference value: 1037 +/- 106.59 uM); type: functional
[18] = Half life in Sprague-Dawley rat at 2 mg/kg, iv measured upto 24 hrs by LC-MS/MS-AR analysis; type: ADME, organism-based; details: in vivo
Cytochrome P450 1A2 = target: T2, Cytochrome P450 1A2 (Homo sapiens, UniProt P05177); experiment: Inhibition of CYP1A2 in human liver microsomes measured after 40 mins incubation by LC-MS/MS analysis; type: ADME, Microsome
T2 sequence (P05177 whole entry): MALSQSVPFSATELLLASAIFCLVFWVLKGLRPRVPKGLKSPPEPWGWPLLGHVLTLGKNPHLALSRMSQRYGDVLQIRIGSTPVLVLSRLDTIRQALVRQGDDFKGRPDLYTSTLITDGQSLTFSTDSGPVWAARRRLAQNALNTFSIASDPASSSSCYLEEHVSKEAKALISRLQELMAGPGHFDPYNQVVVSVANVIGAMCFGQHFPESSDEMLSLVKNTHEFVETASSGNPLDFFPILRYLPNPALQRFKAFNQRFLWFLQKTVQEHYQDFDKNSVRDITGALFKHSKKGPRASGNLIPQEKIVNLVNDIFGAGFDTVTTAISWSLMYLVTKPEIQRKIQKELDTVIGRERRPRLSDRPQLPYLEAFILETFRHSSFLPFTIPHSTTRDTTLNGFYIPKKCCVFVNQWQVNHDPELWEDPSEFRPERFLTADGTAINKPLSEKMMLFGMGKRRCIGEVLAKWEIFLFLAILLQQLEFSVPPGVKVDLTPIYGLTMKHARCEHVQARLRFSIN

[19] = Cmax in Sprague-Dawley rat at 2 mg/kg, po measured upto 24 hrs by LC-MS/MS-AR analysis; type: ADME, organism-based; details: in vivo
Rattus norvegicus [20] = experiment: Potency index, ratio of compound to lesinurad for reduction in serum uric acid level in po dosed acute hyperuricemia state Sprague-Dawley rat model assessed as decrease ratio of SUA level; type: functional
[21] = MRT (0 to infinity) in Sprague-Dawley rat at 2 mg/kg, iv measured upto 24 hrs by LC-MS/MS-AR analysis; type: ADME, organism-based; details: in vivo
[22] = Cmax in Sprague-Dawley rat at 2 mg/kg, iv measured upto 24 hrs by LC-MS/MS-AR analysis; type: ADME, organism-based; details: in vivo
[23] = Toxicity in Kunming female mouse assessed as balloon like degeneration of liver at 100 mg/kg, po administered every other day for 14 days by H and E staining based assay; type: organism-based; details: in vivo, 336 h, time 14 day
[24] = Toxicity in Kunming female mouse assessed as coagulation necrosis of hepatocyte at 100 mg/kg, po administered every other day for 14 days by H and E staining based assay; type: organism-based; details: 336 h, time 14 day

## O=C(O)CCCSc1nc(Nc2ccc(C3CC3)c3ccccc23)c2sccc2n1
[1]
  AUC: 1929.1 ng·h/mL
Mus musculus [2]
  Activity: 93.2%
Mus musculus [3]
  Activity: 76.33%
[4]
  Activity: Non-Toxic
Rattus norvegicus [5]
  Activity: 90.12%
[6]
  Tmax: 4.98 min
Mus musculus [7]
  Activity: 208.6 µM
[8]
  pIC50: 4.74
Cytochrome P450 2D6
  pIC50: < 4.70
[9]
  inhibition at 10 µM: 11.7%
[10]
  Activity: Non-Toxic
Cytochrome P450 3A4
  pIC50: < 4.70
[11]
  Activity: Non-Toxic
[12]
  F: 20.1%
[13]
  clearance: 17 mL/min/kg
[14]
  Activity: Toxic
[15]
  AUC: 1922.9 ng·h/mL
[16]
  AUC(0-t) at 24 h: 1810 ng·h/mL
Mus musculus [17]
  Activity: 418.6 µM
[18]
  half-life: 96 min
Cytochrome P450 1A2
  pIC50: 5.02
[19]
  Cmax: 1270 ng/mL
Rattus norvegicus [20]
  Ratio: 1.8
[21]
  MRT inf: 30 min
[22]
  Cmax: 6590 ng/mL
[23]
  Activity: Non-Toxic
[24]
  Activity: Non-Toxic
